How the values were obtained:
MDCK-MRP2/OATP8 cells = test: Radio-HPLC analysis of [3H]BSP after transport by MDCK-MRP2/OATP8 cells; type: in vitro ADME; conditions: 1 μM [3H]BSP basolateral, 30 min, acivicin 5 mM
Protocol: HPLC Analysis of [^3H]BSP. MDCK-MRP2/OATP8 cells grown on Transwell membrane inserts were incubated with 1 μM [^3H]BSP in the basolateral compartment for 30 min at 37° C. after a pre-incubation with 5 mM acivicin, an inhibitor of g-glutamyltransferase (Allen et al. 1980), in both compartments for 30 min at 37° C. The radioactivity in the apical compartment and in the cell lysate was analyzed by HPLC. Reversed-phase HPLC analyses on a C18 Hypersil column ([…] particles; Shandon, Runcorn, UK) were performed as described (Cui et al. 2001) using a linear gradient elution from 100% buffer A (45% methanol/55% water containing […] tetrabutylammonium hydroxide at pH 6.0) to 100% buffer B (90% methanol/10% water containing 2 mM tetrabutylammonium hydroxide at pH 6.0) at a flow rate of 1 ml/min. [^3H]BSP-SG was synthesized for the HPLC analyses by incubating 1 mM GSH, 0.4 mM [^3H]BSP (1 μCi), and 5 mM acivicin with 350 μl mouse liver cytosol in a final volume of 500 μl for 1 h at 37° C. After deproteinization with 3 volume of methanol 200 μl supernatant was analyzed by HPLC as described above.

[1] = test system: OATP2 and MRP2 (MDCK-OATP2/MRP2 cells); test: Transcellular transport of BSP by MDCK-OATP2/MRP2 cells; type: cell-based, human; conditions: 1 μM [3H]BSP basolateral, 30 min, 37° C.; MDCK-OATP2/MRP2 vs MDCK-Co and MDCK-OATP2
Description: FIG. 13: Transcellular transport of BSP by MDCK-OATP2/MRP2 cells.
Proteins were separated by SDS-PAGE (7.5% gels).

[2] = biological target: T1, human OATP8 (MDCK-OATP8 cells) (Homo sapiens, UniProt Q9NPD5); test: [3H]BSP accumulation and efflux in MDCK-OATP8 cells on Transwell membrane inserts; type: cell-based; parameters: expressed in transfected cells
T1 sequence (Q9NPD5 1-702): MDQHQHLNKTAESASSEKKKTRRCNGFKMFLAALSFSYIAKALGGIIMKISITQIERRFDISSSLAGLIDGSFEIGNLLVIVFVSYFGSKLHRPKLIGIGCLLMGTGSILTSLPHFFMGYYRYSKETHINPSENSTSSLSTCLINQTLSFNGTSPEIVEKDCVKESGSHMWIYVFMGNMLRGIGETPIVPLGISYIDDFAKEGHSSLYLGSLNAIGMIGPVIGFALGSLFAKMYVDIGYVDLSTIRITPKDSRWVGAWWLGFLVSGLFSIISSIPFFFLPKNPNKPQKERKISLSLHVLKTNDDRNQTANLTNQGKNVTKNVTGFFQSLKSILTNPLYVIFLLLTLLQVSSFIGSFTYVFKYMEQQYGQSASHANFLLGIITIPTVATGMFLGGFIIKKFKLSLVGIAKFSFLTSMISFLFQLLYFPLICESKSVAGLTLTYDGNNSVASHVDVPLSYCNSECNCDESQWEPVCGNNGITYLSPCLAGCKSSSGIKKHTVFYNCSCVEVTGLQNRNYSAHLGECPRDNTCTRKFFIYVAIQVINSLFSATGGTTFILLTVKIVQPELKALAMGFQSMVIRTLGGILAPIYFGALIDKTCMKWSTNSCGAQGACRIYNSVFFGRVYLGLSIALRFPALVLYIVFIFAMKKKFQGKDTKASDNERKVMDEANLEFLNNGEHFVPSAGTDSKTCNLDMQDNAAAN

[3] = test system: human OATP8 and MRP2 (MDCK-MRP2/OATP8 cells)
Protocol: For transport assays MDCKII cells were grown on Transwell membrane inserts (24 mm diameter, 0.4 μm pore size, Corning Costar) at confluency for 3 days and induced with 10 mM sodium butyrate for 24 h. […] After the time periods indicated, the radioactivity in the opposite compartments was measured. The intracellular accumulation of the radioactivity was determined by lysing the cells with 2 ml 0.2% SDS in water and measuring the radioactivity in cell lysates.
To study the transcellular transport of Fluo-3, cells were incubated with 2 μM Fluo-3 in the basolateral compartments at 37° C. for 30 min.
To study the transcellular transport of rifampicin, cells were incubated with 50 μM rifampicin in the basolateral compartments at 37° C. for 30 min. To determine the concentration of rifampicin in the apical compartments its absorption at 475 nm was measured with a spectrophotometer (Ultrospec III, Amersham-Pharmacia, Freiburg, Germany). A calibration curve for the calculation of the concentrations of rifampicin was determined in the concentration range between 1 and 50 μM.

human MRP2 = human MRP2 (Homo sapiens, UniProt Q92887); test: ATP-dependent transport of [3H]BSP into inside-out membrane vesicles from HEK-MRP2 cells; type: biochemical
Sequence of human MRP2 (Q92887 whole entry): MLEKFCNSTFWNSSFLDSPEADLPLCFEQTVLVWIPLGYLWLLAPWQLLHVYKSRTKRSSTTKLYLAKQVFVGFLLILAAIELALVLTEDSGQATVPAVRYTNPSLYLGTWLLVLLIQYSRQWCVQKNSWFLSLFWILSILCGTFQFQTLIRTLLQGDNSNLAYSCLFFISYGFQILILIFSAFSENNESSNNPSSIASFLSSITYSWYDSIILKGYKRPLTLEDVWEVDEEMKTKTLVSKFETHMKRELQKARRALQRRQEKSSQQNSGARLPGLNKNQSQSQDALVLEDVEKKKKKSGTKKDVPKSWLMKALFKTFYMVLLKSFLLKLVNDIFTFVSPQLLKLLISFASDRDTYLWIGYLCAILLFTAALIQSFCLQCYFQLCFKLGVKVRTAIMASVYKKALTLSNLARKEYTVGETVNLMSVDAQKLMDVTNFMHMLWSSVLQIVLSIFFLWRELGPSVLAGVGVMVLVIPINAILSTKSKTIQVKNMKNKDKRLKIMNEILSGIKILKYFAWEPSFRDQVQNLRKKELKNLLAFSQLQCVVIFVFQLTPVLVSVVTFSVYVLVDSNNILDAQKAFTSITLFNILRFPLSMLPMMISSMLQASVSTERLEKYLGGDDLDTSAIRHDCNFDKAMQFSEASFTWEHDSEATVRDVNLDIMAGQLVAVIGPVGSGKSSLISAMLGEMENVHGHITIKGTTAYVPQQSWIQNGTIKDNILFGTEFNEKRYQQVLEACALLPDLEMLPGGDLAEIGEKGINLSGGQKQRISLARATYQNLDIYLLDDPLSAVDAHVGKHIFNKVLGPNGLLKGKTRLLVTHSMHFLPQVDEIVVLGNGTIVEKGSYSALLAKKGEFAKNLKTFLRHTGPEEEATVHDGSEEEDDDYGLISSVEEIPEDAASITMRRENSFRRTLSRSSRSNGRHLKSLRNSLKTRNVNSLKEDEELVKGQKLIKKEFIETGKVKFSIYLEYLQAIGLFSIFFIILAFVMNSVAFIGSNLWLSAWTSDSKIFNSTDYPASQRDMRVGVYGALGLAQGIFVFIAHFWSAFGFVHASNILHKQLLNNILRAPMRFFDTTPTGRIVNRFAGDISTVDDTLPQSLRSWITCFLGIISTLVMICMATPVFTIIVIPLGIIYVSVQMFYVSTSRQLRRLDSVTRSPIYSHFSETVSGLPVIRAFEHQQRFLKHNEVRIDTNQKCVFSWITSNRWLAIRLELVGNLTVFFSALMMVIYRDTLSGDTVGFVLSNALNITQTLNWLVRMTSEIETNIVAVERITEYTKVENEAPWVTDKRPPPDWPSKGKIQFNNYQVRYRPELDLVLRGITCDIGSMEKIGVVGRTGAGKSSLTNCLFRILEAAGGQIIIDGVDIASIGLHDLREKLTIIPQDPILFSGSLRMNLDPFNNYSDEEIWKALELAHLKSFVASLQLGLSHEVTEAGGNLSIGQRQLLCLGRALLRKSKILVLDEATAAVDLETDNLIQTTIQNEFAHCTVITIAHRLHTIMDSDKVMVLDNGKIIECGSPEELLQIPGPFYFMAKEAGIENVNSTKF
Protocol: Vesicle Transport Studies. Transport of [^3H]BSP into membrane vesicles was measured by the rapid filtration method (Keppler et al. 1998). Briefly, membrane vesicles (30 μg protein) were incubated in the presence of 4 mM ATP, 10 mM creatine phosphate, 100 μg/ml creatine kinase, and [^3H]BSP in an incubation buffer (250 mM sucrose, 10 mM Tris/HCl, pH 7.4) in a final volume of 55 μl at 37° C. Aliquots (15 μl) were taken at the indicated time points, diluted in 1 ml ice-cold incubation buffer, and immediately filtered through presoaked nitrocellulose membrane (0.2 μm pore size, Schleicher & Schüll, Dassel, Germany). Filters were rinsed twice with 5 ml of incubation buffer, dissolved in liquid scintillation fluid, and counted for radioactivity. In control experiments, ATP was replaced by an equal concentration of 5′-AMP. ATP-dependent transport was calculated by subtracting values obtained in the presence of 5′-AMP from those obtained in the presence of ATP.

## O=C1OC(c2ccc(O)c(S(=O)(=O)O)c2)(c2ccc(O)c(S(=O)(=O)O)c2)c2c(Br)c(Br)c(Br)c(Br)c21 [BSP, sulfobromophthalein]
MDCK-MRP2/OATP8 cells
  radioactivity in the apical compartment and in the cells with the retention time of unconjugated [3H]BSP: > 98%
[1]
  rate of transcellular transport of BSP: significantly higher
[2]; 1 μM basolateral, MDCK-OATP8 or MDCK-MRP2/OATP8 vs MDCK-Co and MDCK-MRP2 cells
  intracellular accumulation of [3H]BSP: significantly higher
[2]; MDCK-OATP8 cells loaded with 1 μM for 30 min, then 30 min efflux
  efflux of [3H]BSP, route of release: mainly across the basolateral membrane
[3]
  intracellular [3H]BSP level remaining after 30 min efflux: significantly lower
  transcellular transport (basolateral to apical): marked transcellular transport
[3]; human, pH 7.3
  rate of transfer from the basolateral to the apical compartment, double-transfected versus single-transfected cells: at least 6 times
Human MRP2; 1 μM, ATP vs 5'-AMP
  transport of [3H]BSP into membrane vesicles from HEK-MRP2 cells: transported ATP-dependently
Human MRP2; HEK-MRP2 vs control-transfected HEK-Co vesicles
  accumulation of [3H]BSP in membrane vesicles: significantly higher

Reference: patent US7229825B2, “Double-transfected cell line useful for the identification of transport inhibitors” (Deutches Krebsforschungszentrum Stiftung des Offentlichen …, priority 2001, dated 2007)
